According to patent publication US20260210939A1, “MODIFIED OLFACTORY RECEPTORS” (GIVAUDAN SA, priority 2022, published 2026):

Assays:
Format in all cases: cell-based
OR2AP1 = molecular target: T1, OR2AP1 (Homo sapiens, UniProt Q8NGE2); assay: Dose-response test of single lactones on OR2AP1
T1 construct: expressed in transfected cells; transient transfection of pcDNA3.1(+) OR plasmid
T1 sequence (Q8NGE2 with tags, fused parts or gaps limits assumed): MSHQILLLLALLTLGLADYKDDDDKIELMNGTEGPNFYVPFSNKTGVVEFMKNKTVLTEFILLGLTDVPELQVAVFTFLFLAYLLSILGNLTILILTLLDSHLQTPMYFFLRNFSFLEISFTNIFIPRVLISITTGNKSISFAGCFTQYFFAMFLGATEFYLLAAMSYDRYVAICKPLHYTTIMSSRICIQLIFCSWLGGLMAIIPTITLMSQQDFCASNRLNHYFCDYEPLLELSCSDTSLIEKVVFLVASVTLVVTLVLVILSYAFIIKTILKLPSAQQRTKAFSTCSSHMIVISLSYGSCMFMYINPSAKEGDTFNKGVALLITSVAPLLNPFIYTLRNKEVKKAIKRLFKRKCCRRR
Experimental: (§1) In a subsequent de-convultion experiment, the single ingredients were tested in a dose-response test on all the identified OR. […] Thus, OR2AP1 and OR2J2 are particularly strongly activated by the long-chain dodecalactone gamma, while OR10A3 is very sensitive to several longer chain lactones. […] Among the five OR, OR10A3 is the most sensitive.

OR2J2 = molecular target: T2, OR2J2 (Homo sapiens, UniProt O76002, A146V/A218T/A302I/G300K/H297E/H74Y); assay: Dose-response test of single lactones on OR2J2
T2 construct: expressed in transfected cells; transient transfection of pcDNA3.1(+) OR plasmid
T2 sequence (O76002 with tags, fused parts or gaps H74Y/A146V/A218T/H297E/G300K/A302I limits assumed): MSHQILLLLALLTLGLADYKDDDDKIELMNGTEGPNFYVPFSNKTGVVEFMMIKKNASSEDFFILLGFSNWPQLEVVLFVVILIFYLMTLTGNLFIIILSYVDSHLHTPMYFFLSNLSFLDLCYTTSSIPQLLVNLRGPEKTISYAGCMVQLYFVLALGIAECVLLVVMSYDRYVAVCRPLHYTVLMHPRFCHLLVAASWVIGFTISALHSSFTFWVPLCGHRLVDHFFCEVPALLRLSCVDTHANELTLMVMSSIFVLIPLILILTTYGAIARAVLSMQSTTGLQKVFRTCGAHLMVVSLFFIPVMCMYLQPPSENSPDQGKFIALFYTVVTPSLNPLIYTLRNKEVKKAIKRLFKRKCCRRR
Experimental: as §1

OR10J1(M51I, I92M) = molecular target: T3, OR10J1(M51I, I92M) (Homo sapiens, UniProt P30954, I103M/M62I); assay: Dose-response test of single lactones on OR10J1(M51I, I92M)
T3 construct: expressed in transfected cells; transient transfection of pcDNA3.1(+) OR plasmid
T3 sequence (P30954 with tags, fused parts or gaps M62I/I103M): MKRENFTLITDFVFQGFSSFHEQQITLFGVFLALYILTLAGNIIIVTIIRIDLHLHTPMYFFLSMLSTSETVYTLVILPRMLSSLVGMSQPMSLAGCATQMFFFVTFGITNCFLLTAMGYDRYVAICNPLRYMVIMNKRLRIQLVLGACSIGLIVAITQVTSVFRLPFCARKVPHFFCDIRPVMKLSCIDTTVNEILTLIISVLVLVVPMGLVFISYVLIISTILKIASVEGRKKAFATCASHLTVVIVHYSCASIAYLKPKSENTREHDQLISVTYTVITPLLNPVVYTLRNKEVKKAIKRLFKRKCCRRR
Experimental: as §1

[1] = molecular target: T4, OR10A6(A117V, V140G, L287P) (Homo sapiens, UniProt Q8NH74, A117V/L287P/V140G); assay: Dose-response test of single lactones on OR10A6(A117V, V140G, L287P)
T4 construct: expressed in transfected cells; transient transfection of pcDNA3.1(+) OR plasmid
T4 sequence (Q8NH74 with tags, fused parts or gaps A117V/V140G/L287P limits assumed): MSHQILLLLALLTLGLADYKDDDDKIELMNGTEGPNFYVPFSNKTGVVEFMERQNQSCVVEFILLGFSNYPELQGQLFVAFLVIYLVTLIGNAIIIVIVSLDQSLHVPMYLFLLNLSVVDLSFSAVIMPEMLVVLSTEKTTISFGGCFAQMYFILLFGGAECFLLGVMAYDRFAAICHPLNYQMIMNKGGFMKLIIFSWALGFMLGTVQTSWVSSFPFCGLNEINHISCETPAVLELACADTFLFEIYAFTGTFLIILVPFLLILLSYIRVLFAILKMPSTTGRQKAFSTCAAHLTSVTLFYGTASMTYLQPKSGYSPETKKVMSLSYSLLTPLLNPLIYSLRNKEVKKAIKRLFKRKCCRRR
Experimental: as §1

OR10A3 = molecular target: T5, OR10A3 (Homo sapiens, UniProt P58181); assay: Dose-response test of single lactones on OR10A3 (luciferase)
T5 construct: Class II OR library members with modified C-terminal domains; expressed in transfected cells
T5 sequence (P58181 with tags, fused parts or gaps): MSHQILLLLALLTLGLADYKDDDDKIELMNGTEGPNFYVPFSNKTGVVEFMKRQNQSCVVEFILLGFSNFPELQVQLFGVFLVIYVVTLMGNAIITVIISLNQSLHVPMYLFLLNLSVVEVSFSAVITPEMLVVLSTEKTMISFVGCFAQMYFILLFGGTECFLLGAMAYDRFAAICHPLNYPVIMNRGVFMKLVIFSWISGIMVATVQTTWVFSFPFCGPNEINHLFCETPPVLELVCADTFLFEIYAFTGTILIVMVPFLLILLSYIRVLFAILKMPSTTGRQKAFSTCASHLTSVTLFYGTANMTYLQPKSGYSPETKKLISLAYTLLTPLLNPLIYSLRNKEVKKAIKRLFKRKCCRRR
Experimental: as §1

OR10J5 [2] = molecular target: T6, OR10J5 (Homo sapiens, UniProt Q8NHC4); conditions: changed C-term. vs wild-type
T6 construct: Improved functional expression of modified OR-genes containing the truncated, optimized C-terminus; expressed in transfected cells; host or cells: HEK293T stably expressing human RTP1S(V227I) and RTP2(L220R)
T6 sequence (Q8NHC4 with tags, fused parts or gaps): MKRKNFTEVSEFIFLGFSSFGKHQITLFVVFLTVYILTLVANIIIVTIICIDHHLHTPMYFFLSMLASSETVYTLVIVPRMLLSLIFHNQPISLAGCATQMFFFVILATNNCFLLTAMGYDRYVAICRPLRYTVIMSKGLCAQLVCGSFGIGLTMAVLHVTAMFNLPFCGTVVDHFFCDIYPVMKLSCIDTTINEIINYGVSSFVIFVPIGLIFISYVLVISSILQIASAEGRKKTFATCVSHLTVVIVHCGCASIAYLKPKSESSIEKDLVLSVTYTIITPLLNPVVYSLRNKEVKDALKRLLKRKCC

OR10J5 [3] = molecular target: T6, OR10J5
Experimental: Activation of OR10J5 with the C-terminal domain of SEQ ID NO: 86 by (S,E)-10-hydroxy-4,8-dimethyldec-4-enal or (R,E)-10-hydroxy-4,8-dimethyldec-4-enal was measured in a dose-response analysis.
Potency of the two tested OR10J5 ligands is expressed as the EC20% value, which is the concentration that leads to a 20% increase of the luciferase activity relative to the positive control (100 μM, Mahonial; (4E)-9-hydroxy-5,9-dimethyl-4-Decenal). […] Because of the difference in EC20%, a much lower concentration of the (S,E)-isomer is needed to activate the receptor compared to the concentration needed of the (R,E)-isomer. […] This example further illustrates the usefulness of the improved assay to determine the most odor-active isomers.

OR56A4 = molecular target: T7, OR56A4 (Homo sapiens, UniProt Q8NGH8, T299N); assay: cell-based; conditions: for activation of the wild-type: wild-type OR56A4
T7 construct: Improved functional expression of modified OR-genes containing the truncated, optimized C-terminus; expressed in transfected cells; host or cells: HEK293T stably expressing human RTP1S(V227I) and RTP2(L220R)
T7 sequence (Q8NGH8 with tags, fused parts or gaps T299N): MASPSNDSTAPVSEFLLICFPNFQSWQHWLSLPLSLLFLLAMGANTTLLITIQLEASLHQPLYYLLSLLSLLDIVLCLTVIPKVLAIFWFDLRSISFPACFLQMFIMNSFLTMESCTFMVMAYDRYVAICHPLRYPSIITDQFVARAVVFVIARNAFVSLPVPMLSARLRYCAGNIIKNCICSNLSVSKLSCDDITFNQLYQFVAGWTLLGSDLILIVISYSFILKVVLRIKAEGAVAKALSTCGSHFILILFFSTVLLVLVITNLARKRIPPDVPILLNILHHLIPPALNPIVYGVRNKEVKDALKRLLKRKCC
Experimental: Activation of OR56A4 by acids of different chain length was further tested. […] Replacing the wild-type with the C-terminal sequence of the functional OR51E1 did reduce activity. However, using the optimized sequence form Examples 1-5 led to a strong signal and much lower detection threshold upon addition of all three acids.
These two improvements were further combined and the combination was tested on OR52A5 and two further class I receptors. […] In the case of OR52A4, 4-ethyloctanoic acid, which is detected at low concentrations by the human nose, is detected with a high luciferase response already at 0.19 μM by the receptor with the C-terminal modification showing very sensitive detection of this carboxylic acid by the modified class I receptor.

| SMILES | EC2 (concentration for 2-fold luciferase induction) (OR2AP1) [µM] | EC2 (concentration for 2-fold luciferase induction) (OR2J2) | EC2 (concentration for 2-fold luciferase induction) (OR10J1(M51I, I92M)) [µM] | EC2 (concentration for 2-fold luciferase induction) [1] [µM] | EC10, concentration for 10-fold OR activation (OR10A3) [μM] | further results |
| --- | --- | --- | --- | --- | --- | --- |
| CCCCCCCC1CCCC(=O)O1 (stereo not drawn) [Dodecalactone delta] | 15.76 | 35.12 µM | 31.38 | 1.11 | 2.59 | – |
| CCCCCCCCC1CCC(=O)O1 (stereo not drawn) [Dodecalactone gamma] | 1.31 | 1.41 µM | 5.31 | 0.48 | 0.85 | – |
| C/C(=C\CCC=O)CCCC(C)(C)O [Mahonial, (4E)-9-hydroxy-5,9-dimethyl-4-Decenal] | – | – | – | – | – | Fold-improvement potency (OR10J5 [2]): 2.3 |
| CC1=CCC(C(C)CC2CCCC2=O)CC1 (stereo not drawn) [Nectaryl] | 19.72 | inactive | – | 1.12 | 2.32 | – |
| Cc1cc(CC(C)C)ccc1CCC=O [Nympheal, 3-(4-isobutyl-2-methylphenyl)propanal] | – | – | – | – | – | Comments on efficacy (OR10J5 [3]): Only 1.8-fold; Fold-improvement potency (OR10J5 [2]): >>6; Fold-improvement threshold (OR10J5 [2]): >>6 |
| CCCCCCCC1CCC(=O)O1 (stereo not drawn) [Undecalactone gamma] | 6.53 | 0.71 µM | 2.11 | 0.34 | 0.28 | – |
| CCCCCCCCCCC(=O)O [Undecanoic acid] | – | – | – | – | – | Fold-improvement potency (OR56A4; changed C-term. vs wild-type): 5.1; EC50 (OR56A4; wild-type): 114 µM; activation of the wild-type (OR56A4): activated at high concentration |
| CCCCCCCCCC(=O)O [decanoic acid] | – | – | – | – | – | activation of the wild-type (OR56A4): activated at high concentration |
